This assay has as its target T1, HCV polymerase (Hepatitis C virus genotype 1b, UniProt P26663).
T1 construct: a region encoding NS5B (J Virol 1991 March, 65(3), 1105-13, 544 amino acids after deletion of 47 amino acids on the C-terminal); 6xHis (C); made in house; host or cells: Escherichia coli
Description: biochemical. More on the design: species or system HCV BK strain. Summed up:
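His-tagged NS5B (BK strain, 47-aa C-terminal deletion, E. coli-expressed) at 0.5 μg/ml copied 5 μg/ml run-off RNA bearing the HCV 3′ UTR with 2 μM UTP plus [3H]UTP, 50 μM ATP/GTP, in pH 7.5 Tris with 5 mM MgCl2, 25 °C, 90 min. TCA-precipitated RNA was counted and IC50 calculated.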

Where a name gives a salt, the structure may show the parent alone. Bounds are passed on as bounds.

T1 sequence (P26663 2420-2963): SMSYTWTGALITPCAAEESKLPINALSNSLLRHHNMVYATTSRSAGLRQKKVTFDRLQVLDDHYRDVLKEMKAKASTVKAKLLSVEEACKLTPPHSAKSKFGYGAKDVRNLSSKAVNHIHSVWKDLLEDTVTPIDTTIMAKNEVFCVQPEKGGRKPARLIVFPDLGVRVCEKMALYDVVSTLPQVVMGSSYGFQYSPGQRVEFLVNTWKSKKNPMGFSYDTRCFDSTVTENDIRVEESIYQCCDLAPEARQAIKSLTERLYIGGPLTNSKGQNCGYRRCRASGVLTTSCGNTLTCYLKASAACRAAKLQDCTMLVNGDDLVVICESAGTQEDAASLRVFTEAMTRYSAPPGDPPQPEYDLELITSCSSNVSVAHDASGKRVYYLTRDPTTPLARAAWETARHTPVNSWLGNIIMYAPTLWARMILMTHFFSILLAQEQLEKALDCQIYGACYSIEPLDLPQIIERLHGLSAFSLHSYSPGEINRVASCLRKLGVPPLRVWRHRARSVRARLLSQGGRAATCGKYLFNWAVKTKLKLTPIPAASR

The term IC50 denotes the midpoint of a concentration-inhibition curve. A higher IC50 goes with lower potency. Consider `O=C1CCN(CCN2CCn3c(c(C4CCCCC4)c4ccc(C(=O)O)cc43)-c3ccccc32)CCN1` [Example 1-519, 13-cyclohexyl-5-[2-(5-oxo-1,4-diazepan-1-yl)ethyl]-6,7-dihydro-5H-benzo[5,6][1,4]diazepino[7,1-a]indole-10-carboxylic acid dihydrochloride], for which the concentration for half-maximal inhibition (IC50) is below 100 nM.

`CC(=O)NS(=O)(=O)c1ccc2c(C3CCCCC3)c3n(c2c1)CCN(CCN1CCCCC1)c1cc(C)ccc1-3` [Example 1-520, N-acetyl-13-cyclohexyl-3-methyl-5-[2-(piperidin-1-yl)ethyl]-6,7-dihydro-5H-benzo[5,6][1,4]diazepino[7,1-a]indole-10-sulfonamide dihydrochloride] gave an IC50 below 100 nM.

`Cc1ccc2c(c1)N(CCCN(C(C)C)C(C)C)CCn1c-2c(C2CCCCC2)c2ccc(C(=O)O)cc21` [Example 1-521, 13-cyclohexyl-5-(3-diisopropylaminopropyl)-3-methyl-6,7-dihydro-5H-benzo[5,6][1,4]diazepino[7,1-a]indole-10-carboxylic acid dihydrochloride] showed an IC50 below 100 nM.

In turn, `O=C(O)c1ccc2c(C3CCCCC3)c3n(c2c1)CCN(CCN1CCCCC1)c1cc(OC(F)(F)F)ccc1-3` [Example 1-522, 13-cyclohexyl-5-[2-(piperidin-1-yl)ethyl]-3-trifluoromethoxy-6,7-dihydro-5H-benzo[5,6][1,4]diazepino[7,1-a]indole-10-carboxylic acid dihydrochloride] returned an IC50 below 100 nM.

For the compound `COCC[C@@H]1CCCN(CCN2CCn3c(c(C4CCCCC4)c4ccc(C(=O)O)cc43)-c3ccc(OC(F)(F)F)cc32)C1` [Example 1-523, 13-cyclohexyl-5-{2-[(S)-3-(2-methoxyethyl)piperidin-1-yl]ethyl}-3-trifluoromethoxy-6,7-dihydro-5H-benzo[5,6][1,4]diazepino[7,1-a]indole-10-carboxylic acid dihydrochloride], the 50% inhibitory concentration (IC50) is below 100 nM.

`CCN(CCCN1CCn2c(c(C3CCCCC3)c3ccc(C(=O)O)cc32)-c2ccc(C)cc21)C(C)C` [Example 1-524, 13-cyclohexyl-5-[3-(N-ethyl-N-isopropylamino)propyl]-3-methyl-6,7-dihydro-5H-benzo[5,6][1,4]diazepino[7,1-a]indole-10-carboxylic acid dihydrochloride] showed an IC50 below 100 nM.

The compound `COC1CCCN(CCN2CCn3c(c(C4CCCCC4)c4ccc(C(=O)O)cc43)-c3ccc(C)cc32)CC1` (stereo not drawn) [Example 1-525, 13-cyclohexyl-5-[2-(4-methoxyazepan-1-yl)ethyl]-3-methyl-6,7-dihydro-5H-benzo[5,6][1,4]diazepino[7,1-a]indole-10-carboxylic acid dihydrochloride] showed an IC50 below 100 nM.

Take `Cc1ccc2c(c1)N(CCN1CCC(=O)N(C)CC1)CCn1c-2c(C2CCCCC2)c2ccc(C(=O)O)cc21` [Example 1-526, 13-cyclohexyl-3-methyl-5-[2-(4-methyl-5-oxo-1,4-diazepan-1-yl)ethyl]-6,7-dihydro-5H-benzo[5,6][1,4]diazepino[7,1-a]indole-10-carboxylic acid dihydrochloride]: the 50% inhibitory concentration (IC50) is below 100 nM.

In the case of `Cc1ccc2c(c1)N(CCN1CCC[C@@H](CC(=O)N(C)C)C1)CCn1c-2c(C2CCCCC2)c2ccc(C(=O)O)cc21` [Example 1-527, 13-cyclohexyl-5-{2-[(S)-3-(dimethylcarbamoylmethyl)piperidin-1-yl]ethyl}-3-methyl-6,7-dihydro-5H-benzo[5,6][1,4]diazepino[7,1-a]indole-10-carboxylic acid dihydrochloride], the concentration for half-maximal inhibition (IC50) is below 100 nM.

Compound `COCCOC[C@@H]1CCCN(CCN2CCn3c(c(C4CCCCC4)c4ccc(C(=O)O)cc43)-c3ccc(C)cc32)C1` [Example 1-528, 13-cyclohexyl-5-{2-[(R)-3-(2-methoxyethoxymethyl)piperidin-1-yl]ethyl}-3-methyl-6,7-dihydro-5H-benzo[5,6][1,4]diazepino[7,1-a]indole-10-carboxylic acid dihydrochloride] displayed a half-inhibitory concentration (IC50) below 100 nM.

On to `Cc1ccc2c(c1)N(CCN1CCC[C@@H](CC(C)(C)O)C1)CCn1c-2c(C2CCCCC2)c2ccc(C(=O)O)cc21` [Example 1-529, 13-cyclohexyl-5-{2-[(S)-3-(2-hydroxy-2-methylpropyl)piperidin-1-yl]ethyl}-3-methyl-6,7-dihydro-5H-benzo[5,6][1,4]diazepino[7,1-a]indole-10-carboxylic acid dihydrochloride], for which the half-inhibitory concentration (IC50) is below 100 nM.

Take `COC[C@@H]1CCCN(CCN2CCn3c(c(C4CCCCC4)c4ccc(C(=O)O)cc43)-c3cc(F)c(F)cc32)C1` [Example 1-530, 13-cyclohexyl-2,3-difluoro-5-[2-7((R)-3-methoxymethylpiperidin-1-yl)ethyl]-6,7-dihydro-5H-benzo[5,6][1,4]diazepino[7,1-a]indole-10-carboxylic acid dihydrochloride]: the IC50 is below 100 nM.

`CCN(CCCOC)CCN1CCn2c(c(C3CCCCC3)c3ccc(C(=O)O)cc32)-c2ccc(C)cc21` [Example 1-531, 13-cyclohexyl-5-{2-[N-ethyl-N-(3-methoxypropyl)amino]ethyl}-3-methyl-6,7-dihydro-5H-benzo[5,6][1,4]diazepino[7,1-a]indole-10-carboxylic acid dihydrochloride]: the IC50 was below 100 nM.

Take `Cc1ccc2c(c1)N(CCN1CCOCC(C)C1)CCn1c-2c(C2CCCCC2)c2ccc(C(=O)O)cc21` (stereo not drawn) [Example 1-532, 13-cyclohexyl-3-methyl-5-[2-(6-methyl-1,4-oxazepan-4-yl)ethyl]-6,7-dihydro-5H-benzo[5,6][1,4]diazepino[7,1-a]indole-10-carboxylic acid dihydrochloride]: the IC50 is below 100 nM.

As to `Cc1ccc2c(c1)N(CCN1CCC[C@@H](C(C)(C)O)C1)CCn1c-2c(C2CCCCC2)c2ccc(C(=O)O)cc21` [Example 1-533, 13-cyclohexyl-5-{2-[(R)-3-(1-hydroxy-1-methylethyl)piperidin-1-yl]ethyl}-3-methyl-6,7-dihydro-5H-benzo[5,6][1,4]diazepino[7,1-a]indole-10-carboxylic acid dihydrochloride], the IC50 is below 100 nM.

With `COCCN1CCCC(CCN2CCn3c(c(C4CCCCC4)c4ccc(C(=O)O)cc43)-c3ccc(Cl)cc32)C1` (stereo not drawn) [Example 1-534, 3-chloro-13-cyclohexyl-5-{2-[1-(2-methoxyethyl)piperidin-3-yl]ethyl}-6,7-dihydro-5H-benzo[5,6][1,4]diazepino[7,1-a]indole-10-carboxylic acid dihydrochloride], the IC50 is below 100 nM.

`Cc1noc(C)c1COc1ccc2c(c1)N(CCN(C)C)CCn1c-2c(C2CCCCC2)c2ccc(C(=O)O)cc21` [Example 1-535, 13-cyclohexyl-5-(2-dimethylaminoethyl)-3-(3,5-dimethylisoxazol-4-ylmethoxy)-6,7-dihydro-5H-benzo[5,6][1,4]diazepino[7,1-a]indole-10-carboxylic acid dihydrochloride]: the IC50 was below 100 nM.

In turn, `Cc1ccc2c(c1)N(CCN1CCCC(=O)CC1)CCn1c-2c(C2CCCCC2)c2ccc(C(=O)O)cc21` [Example 1-536, 13-cyclohexyl-3-methyl-5-[2-(4-oxoazepan-1-yl)ethyl]-6,7-dihydro-5H-benzo[5,6][1,4]diazepino[7,1-a]indole-10-carboxylic acid dihydrochloride] yielded an IC50 below 100 nM.

For `Cc1ccc2c(c1)N(CCN1CCC[C@@H](CCC(=O)N(C)C)C1)CCn1c-2c(C2CCCCC2)c2ccc(C(=O)O)cc21` [Example 1-537, 13-cyclohexyl-5-{2-[(S)-3-(2-dimethylcarbamoylethyl)piperidin-1-yl]ethyl}-3-methyl-6,7-dihydro-5H-benzo[5,6][1,4]diazepino[7,1-a]indole-10-carboxylic acid dihydrochloride], the half-inhibitory concentration (IC50) is below 100 nM.

Compound `Cc1ccc2c(c1)N(CCN1CCCC(O)CC1)CCn1c-2c(C2CCCCC2)c2ccc(C(=O)O)cc21` (stereo not drawn) [Example 1-538, 13-cyclohexyl-5-[2-(4-hydroxyazepan-1-yl)ethyl]-3-methyl-6,7-dihydro-5H-benzo[5,6][1,4]diazepino[7,1-a]indole-10-carboxylic acid dihydrochloride] returned an IC50 below 100 nM.

The compound `CCN(CCCCOC)CCN1CCn2c(c(C3CCCCC3)c3ccc(C(=O)O)cc32)-c2ccc(C)cc21` [Example 1-539, 13-cyclohexyl-5-{2-[N-ethyl-N-(4-methoxybutyl)amino]ethyl}-3-methyl-6,7-dihydro-5H-benzo[5,6][1,4]diazepino[7,1-a]indole-10-carboxylic acid dihydrochloride] yielded an IC50 below 100 nM.

The compound `COCCCC1CCCN(CCN2CCn3c(c(C4CCCCC4)c4ccc(C(=O)O)cc43)-c3ccc(C)cc32)C1` [Example 1-540, 13-cyclohexyl-5-{2-[(S)-3-(3-methoxypropyl)piperidin-1-yl]ethyl}-3-methyl-6,7-dihydro-5H-benzo[5,6][1,4]diazepino[7,1-a]indole-10-carboxylic acid dihydrochloride] returned a half-inhibitory concentration (IC50) below 100 nM.

Compound `COC(C)(C)[C@@H]1CCCN(CCN2CCn3c(c(C4CCCCC4)c4ccc(C(=O)O)cc43)-c3ccc(C)cc32)C1` [Example 1-541, 13-cyclohexyl-5-{2-[(R)-3-(1-methoxy-1-methylethyl)piperidin-1-yl]ethyl}-3-methyl-6,7-dihydro-5H-benzo[5,6][1,4]diazepino[7,1-a]indole-10-carboxylic acid dihydrochloride] displayed an IC50 below 100 nM.

`COCCC1CCCCN1CCN1CCn2c(c(C3CCCCC3)c3ccc(C(=O)O)cc32)-c2ccc(C)cc21` (stereo not drawn) [Example 1-542, 13-cyclohexyl-5-{2-[2-(2-methoxyethyl)piperidin-1-yl]ethyl}-3-methyl-6,7-dihydro-5H-benzo[5,6][1,4]diazepino[7,1-a]indole-10-carboxylic acid dihydrochloride]: the half-maximal inhibitory concentration (IC50) is below 100 nM.

These data come from patent US20070049593A1 (priority 2004, published 2007).
